This note sets out measurements from publication PMC9894841, “Characterisation of a cyclic peptide that binds to the RAS binding domain of phosphoinositide 3-kinase p110α” (Scientific Reports, 2023).

Where “and” joins values, the source holds several entries; their conditions need not be identical. Equal entries are not always repeated. Entries after “also recorded” stand apart in the source; their conditions may differ. Residues, ends and D or L forms follow the SMILES beside them.

For one data set, the target named is p110α (p110α/p85α) (Homo sapiens, UniProt P42336). The experiment in a line: Microscale thermophoresis (MST) binding to labelled p110α/p85α. The following applies: for Kd: labelled protein 100 nM, 25 °C; for increase in affinity for p110α over cyclo-CRVLAA: MST. On the technique in general: Microscale thermophoresis detects binding through changes in fluorescence in a small temperature gradient.

Data set [1] can be described thus: Solubility of the peptides (in words). The format is physicochemical.
The target of a further data set is T1, GST-RBDα/KRAS (Homo sapiens, UniProt P42336).
T1 construct: we created a fusion of the RBD (amino acids 133 – 314) with GST; expressed in transfected cells; host or cells: E. coli strain SNS126 (cassette integrated via pAH68)
The experiment in a line: GST-RBDα/KRAS reverse two-hybrid system (RTHS), SICLOPPS screen. In kind it is cell-based, E. coli. As to conditions: arabinose induced expression of the cyclic peptide. The source says:
The SICLOPPS technique as previously published is based on two steps: first, building a reverse two-hybrid system (RTHS) that expresses the target protein complex in bacteria as a screening platform and second, the production of a genetically encoded cyclic peptide library[25]–[29]. […] Also, the expression of the full length p110α needs to be in association with the regulatory subunit p85α in order to achieve a stable protein dimer, which makes it a large and complex protein to express in bacteria. In a successful RTHS system, the engineered bacterial cell line should show a reduction of growth on selective media upon induction of expression of the target protein complex with increasing isopropyl β-d-1-thiogalactopyranoside (IPTG)[27]–[29]. […] We hypothesised that this could be due to a lack of solubility of RBDα, a previously described feature of the RBDs of p110 proteins. Therefore, we designed another RTHS carrying a GST fusion tag at the N-terminus of the RBDα (GST-RBDα/KRAS RTHS).
We used the GST-RBDα/KRAS RTHS to screen a CXXXXX (where X is any of the 20 canonical amino acids) SICLOPPS plasmid library of 3.2 million genetically encoded cyclic hexapeptides. The cyclic peptides contain an invariant cysteine and five other amino acids that are each equally distributed between the twenty possibilities. Thus, each SICLOPPS plasmid contains a different sequence representing a unique peptide.
Due to the lack of solubility of the p110α-RBD we created a fusion of the RBD (amino acids 133 – 314) with GST (Glutathione S-transferase) by PCR amplification, to produce a recombinant protein of GST-RBD (hereafter RBD). Both KRAS (amino acids 1–168—lacking the Hyper Variable Region) and the RBD were cloned into the pTHCP14 vector that contains two bacteriophage repressors P22 and 434, producing a cassette that consists of two fusion proteins—KRAS with 434 and RBD with P22. This cassette was then sub-cloned into the CRIM integration plasmid pAH68—for integration into E. coli strain SNS126 that contains the chimeric P22 and 434 operators. When expressed, the interaction of KRAS with the RBD brings together the P22 and the 434 repressors to form a dimer that will interact with the chimeric P22 and 434 operators—resulting in no growth on selective media.
The SICLOPPS library was generated by PCR amplification using degenerate primers encoding cyclo-CXXXXX hexapeptides (where X is any amino acid), producing around 3.2 million compounds. The SICLOPPS RTHS formation, cyclic peptide production and library screening were followed as described[24],[25],[46].

The subject of a further data set is H1792 cells. Kind of data set: Western blot of phospho-AKT / phospho-ERK in H1792 cells. The format is cell-based, human. The following applies: RPMI 1640 10% FCS, 2, 10 and 50 µM (also 4, 20 and 100 µM), 4 h. As to the method: We treated the human lung cancer cell line H1792, growing at steady-state in Roswell Park Memorial Institute (RPMI) 1640 media with 10% Foetal Calf Serum (FCS), with the seven cyclic peptides at three different concentrations (2, 10 and 50 µM) for 4 h. After treatment we measured the effect of the peptides on the phosphorylation levels of AKT (pAKT-Ser473), a key downstream effector of p110α activity. […] In contrast, the phosphorylation levels of ERK (p-ERK), which is a downstream effector of the RAS/RAF/MEK/ERK pathway and is independent of p110α activity, were not affected.
The next day, 1 ml of medium was removed and the cells were treated with different peptide concentrations for 4 h. All peptides were dissolved in 25 mM Tris pH8, 100 mM NaCl and 1 mM TCEP. Cells were then harvested and lysed for SDS-PAGE and western blot analysis. Anti-calnexin antibody was obtained from Abcam. Antibodies directed against phospho-T202/Y204-ERK, ERK, phospho-S473-AKT and AKT were obtained from Cell Signaling. After western blotting, calnexin, AKT and phospho-AKT signals were quantified using ImageJ and statistical tests were done using Prism software.
In general terms: A western blot detects proteins with antibodies after separation by electrophoresis.

The next data set has as its target CRAF-RBD (Homo sapiens, UniProt P04049). Kind of data set: MST binding to CRAF-RBD.

T1 sequence (P42336 133-314): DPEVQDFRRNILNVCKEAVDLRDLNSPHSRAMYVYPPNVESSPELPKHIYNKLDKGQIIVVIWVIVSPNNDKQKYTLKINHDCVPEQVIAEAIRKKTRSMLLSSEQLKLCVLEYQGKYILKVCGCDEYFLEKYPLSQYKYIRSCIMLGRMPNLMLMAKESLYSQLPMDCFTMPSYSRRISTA
Chain of p110α (p110α/p85α) (P42336 whole entry, species assumed): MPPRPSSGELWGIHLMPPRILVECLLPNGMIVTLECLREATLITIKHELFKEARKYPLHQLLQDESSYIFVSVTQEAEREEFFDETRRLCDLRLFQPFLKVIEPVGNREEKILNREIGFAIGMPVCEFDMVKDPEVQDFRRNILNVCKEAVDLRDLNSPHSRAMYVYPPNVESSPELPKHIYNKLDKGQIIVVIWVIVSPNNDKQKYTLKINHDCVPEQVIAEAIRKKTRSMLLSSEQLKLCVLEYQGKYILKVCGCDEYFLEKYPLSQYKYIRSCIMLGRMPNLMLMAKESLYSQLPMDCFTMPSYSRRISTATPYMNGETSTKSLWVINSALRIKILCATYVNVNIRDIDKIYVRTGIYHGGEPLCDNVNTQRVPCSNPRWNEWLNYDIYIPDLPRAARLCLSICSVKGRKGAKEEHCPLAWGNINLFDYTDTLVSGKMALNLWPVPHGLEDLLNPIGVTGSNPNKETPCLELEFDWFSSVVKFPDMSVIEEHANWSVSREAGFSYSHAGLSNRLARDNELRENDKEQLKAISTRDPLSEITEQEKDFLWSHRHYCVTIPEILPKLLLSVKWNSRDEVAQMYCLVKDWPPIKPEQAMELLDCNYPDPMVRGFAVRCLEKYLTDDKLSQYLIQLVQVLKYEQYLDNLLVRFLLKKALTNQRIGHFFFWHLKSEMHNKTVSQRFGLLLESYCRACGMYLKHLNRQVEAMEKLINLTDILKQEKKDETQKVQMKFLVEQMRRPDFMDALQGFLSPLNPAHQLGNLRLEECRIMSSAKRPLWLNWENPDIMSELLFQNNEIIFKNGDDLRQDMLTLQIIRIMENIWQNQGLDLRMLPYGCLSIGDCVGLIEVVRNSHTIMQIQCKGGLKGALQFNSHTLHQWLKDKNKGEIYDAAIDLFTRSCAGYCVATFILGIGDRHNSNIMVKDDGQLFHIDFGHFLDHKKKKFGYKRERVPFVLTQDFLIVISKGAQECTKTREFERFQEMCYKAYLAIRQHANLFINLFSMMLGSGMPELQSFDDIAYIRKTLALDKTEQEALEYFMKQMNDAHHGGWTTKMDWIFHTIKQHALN
Chain of p110α (p110α/p85α) (P27986 whole entry partner, species assumed): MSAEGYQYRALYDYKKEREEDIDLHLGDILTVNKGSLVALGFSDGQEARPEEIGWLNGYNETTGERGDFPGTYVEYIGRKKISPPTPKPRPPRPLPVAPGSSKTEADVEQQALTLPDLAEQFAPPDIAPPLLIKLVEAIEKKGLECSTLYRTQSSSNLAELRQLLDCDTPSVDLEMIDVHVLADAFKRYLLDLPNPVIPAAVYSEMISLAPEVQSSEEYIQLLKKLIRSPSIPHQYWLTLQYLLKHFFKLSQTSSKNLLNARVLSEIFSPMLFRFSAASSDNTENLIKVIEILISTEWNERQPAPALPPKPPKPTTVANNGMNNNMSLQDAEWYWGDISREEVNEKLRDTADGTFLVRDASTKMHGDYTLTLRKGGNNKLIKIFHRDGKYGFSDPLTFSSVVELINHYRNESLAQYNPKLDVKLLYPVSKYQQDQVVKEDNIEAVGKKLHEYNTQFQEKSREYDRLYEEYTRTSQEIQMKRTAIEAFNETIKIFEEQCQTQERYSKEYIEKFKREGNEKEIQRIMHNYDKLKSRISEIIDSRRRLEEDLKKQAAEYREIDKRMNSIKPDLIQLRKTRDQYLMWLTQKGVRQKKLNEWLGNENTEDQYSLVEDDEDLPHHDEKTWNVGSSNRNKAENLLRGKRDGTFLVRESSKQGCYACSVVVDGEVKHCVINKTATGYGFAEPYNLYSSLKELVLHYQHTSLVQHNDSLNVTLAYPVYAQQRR
Chain of CRAF-RBD (P04049 56-131 limits assumed): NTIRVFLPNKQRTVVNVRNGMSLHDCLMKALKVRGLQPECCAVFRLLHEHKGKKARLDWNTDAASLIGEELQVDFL
Experimental for CRAF-RBD: Measurements were performed using a NanoTemper Monolith™ NT.115 instrument (NanoTemper Technologies GmbH, München, Germany). […] Labelling levels (generally in the range 0.3–0.4 dye molecules per protein molecule) were determined using calculated extinction coefficients for the protein and ε647 = 250,000 M^−1 cm^−1 (or ε495 = 70,000 M^−1 cm^−1) for the dye concentration. In a typical experiment 20 ml aliquots of a 100 nM stock solution of labelled protein were mixed with 20 ml aliquots of a serial dilution of binding partner. These solutions were then loaded into standard treated capillaries and MST measurements were performed at 25 °C using 20–40% LED power and 40–60% IR-Laser power. The laser Laser-On time was 30 s and Laser-Off time 5 s. All measurements were performed at least five times.

On p110α (p110α/p85α), `CC(C)C[C@@H]1NC(=O)[C@H](C(C)C)NC(=O)[C@H](CCCNC(=N)N)NC(=O)[C@H](CS)NC(=O)[C@H](C)NC(=O)[C@H](CCC(=O)O)NC1=O` [CRVLEA, Cyclo-CRVLEA] (cyclo(CRVLEA)) showed a dissociation constant (Kd) of no less than 1210 µM.

On to `CC(C)C[C@@H]1NC(=O)[C@H](C(C)C)NC(=O)[C@H](CCCNC(=N)N)NC(=O)[C@H](CS)NC(=O)[C@H](C)NC(=O)[C@H](C)NC1=O` [cyclo-CRVLAA, Cyclo-CRVLAA], for which, at p110α (p110α/p85α), the “binding to p110α in words, MST” value is listed as “weak binding; also recorded: interacted weakly”; the Kd is ≥ 360 µM and ~360 µM. Moreover, the solubility in words result in data set [1] is “most soluble of these”.

At p110α (p110α/p85α), `CC(C)C[C@@H]1NC(=O)[C@H](C(C)C)NC(=O)[C@H](CCCNC(=N)N)NC(=O)[C@H](CS)NC(=O)[C@H](C)NC(=O)[C@H](CCCNC(=N)N)NC1=O` [CRVLRA, Cyclo-CRVLRA] (cyclo(CRVLRA)) came in with a Kd of no less than 140 µM.

For the compound `CC(C)C[C@@H]1NC(=O)[C@H](CS)NC(=O)[C@H](Cc2ccc(O)cc2)NC(=O)[C@H](Cc2c[nH]c3ccccc23)NC(=O)[C@H](Cc2c[nH]c3ccccc23)NC(=O)[C@H](C(C)C)NC1=O` [cyclo-CLVWWY, Cyclo-CLVWWY] (cyclo(CLVWWY)), the “regrowth of the GST-RBDα/KRAS RTHS on selective media with IPTG” value (shortened to “regrowth … on selective media with IPTG”) on GST-RBDα/KRAS is reported as “regrowth”.

At p110α (p110α/p85α), `CC(C)C[C@@H]1NC(=O)[C@H](C(C)C)NC(=O)[C@H](CCCNC(=N)N)NC(=O)[C@H](CS)NC(=O)[C@H](CCC(=O)O)NC(=O)[C@H](C)NC1=O` [CRVLAE, Cyclo-CRVLAE] (cyclo(CRVLAE)) gave a Kd of no less than 817 µM.

In the case of `CC[C@H](C)[C@@H]1NC(=O)[C@H](CCCNC(=N)N)NC(=O)[C@H](CS)NC(=O)[C@H]([C@@H](C)CC)NC(=O)[C@H](C(C)C)NC(=O)[C@H](C(C)C)NC1=O` [cyclo-CRIVVI, Cyclo-CRIVVI] (cyclo(CRIVVI)), the “regrowth … on selective media with IPTG” value at GST-RBDα/KRAS is “regrowth”.

With `CSCC[C@@H]1NC(=O)[C@H](CS)NC(=O)[C@H](CCCNC(=N)N)NC(=O)CNC(=O)CNC(=O)[C@H](CO)NC1=O` [cyclo-CMSGGR, Cyclo-CMSGGR] (cyclo(CMSGGR)), the “regrowth … on selective media with IPTG” value at GST-RBDα/KRAS is listed as “regrowth”.

For `CC(C)C[C@@H]1NC(=O)[C@H](CCCCN)NC(=O)[C@H](CS)NC(=O)[C@H](CC(C)C)NC(=O)[C@H](C(C)C)NC(=O)[C@H](C(C)C)NC1=O` [cyclo-CKLVVL, Cyclo-CKLVVL] (cyclo(CKLVVL)), the “regrowth … on selective media with IPTG” value on GST-RBDα/KRAS is listed as “regrowth”.

For the compound `CC(C)C[C@@H]1NC(=O)[C@H](C(C)C)NC(=O)[C@H](CCCNC(=N)N)NC(=O)[C@H](CS)NC(=O)[C@H](CCCNC(=N)N)NC(=O)[C@H]([C@@H](C)O)NC1=O` [cyclo-CRVLTR, Cyclo-CRVLTR] (cyclo(CRVLTR)), the “effect on phospho-AKT (pAKT-Ser473) levels” value in the data set on H1792 cells was “mild effect”.

For `CC(C)C[C@@H]1NC(=O)[C@H](Cc2ccc(O)cc2)NC(=O)[C@H](CC(C)C)NC(=O)[C@H](CC(C)C)NC(=O)[C@H](Cc2c[nH]c3ccccc23)NC(=O)[C@H](CS)NC1=O` [cyclo-CWLLYL, Cyclo-CWLLYL] (cyclo(CWLLYL)), the “regrowth … on selective media with IPTG” value at GST-RBDα/KRAS is recorded as “regrowth”.

In the case of `CC(C)C[C@@H]1NC(=O)[C@H](CS)NC(=O)[C@H](Cc2c[nH]c3ccccc23)NC(=O)[C@H](Cc2c[nH]c3ccccc23)NC(=O)[C@H](Cc2ccc(O)cc2)NC(=O)[C@H](Cc2c[nH]c3ccccc23)NC1=O` [cyclo-CLWYWW, Cyclo-CLWYWW] (cyclo(CLWYWW)), at GST-RBDα/KRAS, the “regrowth … on selective media with IPTG” value was “regrowth”.

On to `CC[C@H](C)[C@@H]1NC(=O)[C@H](C(C)C)NC(=O)[C@H](CS)NC(=O)[C@H](C(C)C)NC(=O)[C@H](C(C)C)NC(=O)[C@H](CC(C)C)NC1=O` [cyclo-CVILVV, Cyclo--CVILVV] (cyclo(CVILVV)), for which the “regrowth … on selective media with IPTG” value on GST-RBDα/KRAS was “regrowth”.

For the compound `CC(C)C[C@@H]1NC(=O)[C@H](C(C)C)NC(=O)[C@H](CCCNC(=N)N)NC(=O)[C@H](CS)NC(=O)[C@H](C)NC(=O)[C@H](CC(=O)O)NC1=O` [CRVLDA, Cyclo-CRVLDA] (cyclo(CRVLDA)), the equilibrium dissociation constant (Kd) on p110α (p110α/p85α) was no less than 476 µM.

In the case of `CC(C)C[C@@H]1NC(=O)[C@H](C(C)C)NC(=O)[C@H](CCCNC(=N)N)NC(=O)[C@H](CS)NC(=O)[C@H](CC(=O)O)NC(=O)[C@H](C)NC1=O` [cyclo-CRVLAD, Cyclo-CRVLAD], on p110α (p110α/p85α), the “increase in affinity for p110α over cyclo-CRVLAA” value is given as 30 fold and the Kd is 11.8 ± 1.75 µM. Also, the “binding to CRAF-RBD in words, MST” value at CRAF-RBD is “does not interact; also recorded: did not produce a positive signal of interaction”.

Turning to Cyclo-CAWCGR, at GST-RBDα/KRAS, the “regrowth … on selective media with IPTG” value was “regrowth”.

On to `CC(C)C[C@@H]1NC(=O)[C@H](C(C)C)NC(=O)[C@H](CCCNC(=N)N)NC(=O)[C@H](CS)NC(=O)[C@H](CCCNC(=N)N)NC(=O)[C@H](C)NC1=O` [cyclo-CRVLAR, Cyclo-CRVLAR] (cyclo(ARCRVL)), for which, at p110α (p110α/p85α), the “increase in affinity for p110α over cyclo-CRVLAA” value is “tenfold”.

For orientation: Kd means the constant that tells how readily two partners part at equilibrium. The low end stands for tighter binding, the high end for weaker binding.
